Experimental data taken from article PMC10560666, “Four new triterpene saponins from Cephalaria speciosa and their potent cytotoxic and immunomodulatory activities” (Scientific Reports, 2023).
Marks after values point to notes of the source that are not given here.

How the values were obtained:
[1] = tested on: CCD-34Lu normal human lung fibroblast cells; experiment: MTT cytotoxicity on CCD-34Lu healthy cells; assay type: cell-based; conditions: 48 h, mean ± standard deviation, n = 3, – = Not detected
Protocol: (§1) The human leukemia monocyte cell line (THP-1), human lung adenocarcinoma cell line (A549), human breast cancer cells (MDA-MB231), human prostate adenocarcinoma cells (PC3), human malignant glioma cell line (U87MG), human cervical gland carcinoma cells (HeLa), human hepatocellular carcinoma cells (HEP-G2) and normal human lung fibroblast cells (CCD-34-LU) as a healthy cell line in our stock used in this study were purchased from American Type Culture Collection (ATCC). THP-1 cells were cultured in Roswell Park Memorial Institute (RPMI 1640) medium and MDA-MB231, PC3, U87 MG, HeLa, HEP-G2, and CCD-34-LU cells cultivated in Dulbecco’s Modified Eagle’s Medium/Nutrient Mixture F-12 (DMEM/F12) (Gibco, USA) medium supplemented with 10% FBS (Gibco, USA), 100U/mL of penicillin 100 µg/mL of streptomycin (Gibco, USA), and 2 mM L-glutamine (Gibco, USA).
(§2) Cytotoxicity of saponins (1–4) and their prosapogenins (2a–4a) were tested against A549, MDA-MB-231, PC-3, U87MG, HeLa, HepG-2 cancer cells and CCD34-Lu healthy cell line using MTT [3-(4,5-dimethylthiazole-2-yl)-2,5-diphenyltetrazolium bromide)] assay (Acros Organics, New Jersey, USA)[11], [23]. For this purpose, 1 × 10^5 cells/mL of all the cell lines were seeded in 96-well plates (Corning, USA) and cultivated in the at 37 °C overnight. After the incubation, the cells were incubated with different concentrations of saponins (50, 5, and 0.5 µg/mL), and doxorubicin (Sigma, USA) (20, 2, and 0.2 µg/mL) for 48 h at 37 °C. Then, the MTT was added as 20 μL (from the stock concentration of 2.5 mg/mL) to all wells and further incubated for 4 h at 37 °C. Following the incubation, the medium was removed and 150 µL DMSO was added to dissolve the formed formazan crystals. After the formazan crystals were completely dissolved, the optical density (OD) was measured at 570 nm with an UV/Vis microplate spectrophotometer (Thermo Fisher Scientific, USA). All data are the results of at least three independent experiments carried out in triplicate. Data are presented as mean ± standard error of the mean (SEM) of samples. The IC50 value was calculated using the GraphPad Prism 8 (USA) program based on the calculated percent viability values and absorbance values. The percentage of viability was determined by Eq. (1):1 %Viablecells=absorbanceoftreatedcells-absorbanceofblank/absorbanceofcontrol-absorbanceofblank×100

[2] = tested on: THP-1 originated-macrophage; experiment: MTT cytotoxicity on THP-1 originated macrophages; assay type: cell-based, human; conditions: mean ± standard deviation, n = 3, – = Not detected
[3] = tested on: A549 human lung adenocarcinoma cell line; experiment: MTT cytotoxicity on A549; assay type: cell-based; conditions: mean ± standard deviation, n = 3, – = Not detected
Protocol: as §1, §2

[4] = tested on: MDA-MB-231 human breast cancer cells; experiment: MTT cytotoxicity on MDA-MB-231; assay type: cell-based; conditions: mean ± standard deviation, n = 3, – = Not detected
Protocol: as §1, §2

[5] = tested on: HeLa human cervical gland carcinoma cells; experiment: MTT cytotoxicity on HeLa; assay type: cell-based; conditions: 48 h, mean ± standard deviation, n = 3, – = Not detected
Protocol: as §1, §2

[6] = tested on: HepG-2 human hepatocellular carcinoma cells; experiment: MTT cytotoxicity on HepG-2; assay type: cell-based; conditions: mean ± standard deviation, n = 3, – = Not detected
Protocol: as §1, §2

[7] = tested on: U87MG human malignant glioma cell line; experiment: MTT cytotoxicity on U87MG; assay type: cell-based; conditions: 48 h, mean ± standard deviation, n = 3, – = Not detected
Protocol: as §1, §2

[8] = tested on: THP-1 derived macrophage cells; experiment: Macrophage polarization by flow cytometry (CD11b, CD80, CD163 MFI); assay type: cell-based, human; conditions: saponin 3 µg/mL, 24 h, PMA-differentiated THP-1, mean ± SD, n = 3
Protocol: To differentiate THP-1 cells into M0-THP-1, cells were seeded at an initial concentration of 1 × 10^6 cells/mL in 6-well plates (Corning, USA) and treated with 15 ng/mL phorbol 12-myristate 13—acetate (PMA, Sigma USA). Then incubate at 5% CO2, 37 °C for 48 h[24]. To evaluate the potential of saponins with/without infectious bronchitis virus (IBV) D274 antigen on macrophage polarization, THP-1 cells were treated with saponins at 3 µg/mL and then incubated for 24 h with or without 4 µL of inactivated IBV D274 antigens (final titer of 1 HA). […] Based on the results of our previous research, the saponin concentration was selected as a non-cytotoxic concentration. At the end of the incubation period, the cells were collected by trypsinization and washed three times with PBS. Following, 1 µL of PE anti-human CD80 (Biolegend, CA), FITC anti-human CD163 (Biolegend, CA), and FITC anti-human CD11b (Biolegend, CA) antibodies were added into the cells pellet and incubated for 45 min at room temperature in the dark. The cells pellets underwent two PBS washes following incubation. Finally, the cells were subsequently analyzed by flow cytometry (BD Accuri, C5). 1 × 10^4 cells were counted for each sample group using flow cytometry. All data are the results of at least three independent experiments carried out in triplicate. Data are presented as mean ± standard error of the mean (SEM) of samples. The untreated stained macrophage cells with anti-human CD80, FITC anti-human CD163, and FITC anti-human CD11b were compared with the results of treated cells to obtain from M0 polarization to M1 and M2 or both.
Figure 2 (a) Saponins without antigen treatment, (b) Saponins treated with antigen. THP-1 cells were treated with 15 ng/ml PMA and 3 µg/ml saponins and 1 HA titer of IBV D274 induced in the saponins with antigen group for 24 h incubation. The macrophage polarization was determined with flow cytometry. Each value represents the mean ± standard deviation of three independents measurements. (P < 0.05*, P < 0.01**, P < 0.001***).

[9] = tested on: PC-3 human prostate adenocarcinoma cells; experiment: MTT cytotoxicity on PC-3; assay type: cell-based; conditions: 48 h, mean ± standard deviation, n = 3, – = Not detected
Protocol: as §1, §2

[10] = with inactivated IBV D274 antigen (1 HA)

## C[C@@H]1O[C@@H](O[C@H]2[C@H](O[C@H]3CC[C@@]4(C)C(CC[C@]5(C)C4CC=C4C6CC(C)(C)CC[C@]6(C(=O)O[C@@H]6O[C@H](CO[C@@H]7O[C@H](CO)[C@@H](O)[C@H](O)[C@H]7O)[C@@H](O)[C@H](O)[C@H]6O)CC[C@]45C)[C@]3(C)CO)O[C@H](CO)[C@H](O)[C@@H]2O)[C@H](O)[C@H](O)[C@H]1O (stereo partly drawn) [Compound 4, 3-O-α-L-rhamnopyranosyl-(1 → 2)-β-D-galactopyranosyl-hederagenin-28-O-β-D-glucopyranosyl-(1 → 6)-β-D-glucopyranosyl ester]
[1]; Homo sapiens, Fibroblast
  IC50: > 45.2 µM
[2]; Homo sapiens, THP-1, 48 h
  IC50: > 45.2 µM
[3]; Homo sapiens, A549, 48 h
  IC50: > 45.2 µM
[4]; Homo sapiens, MDA-MB-231, 48 h
  IC50: > 45.2 µM
[5]; Homo sapiens, HeLa
  IC50: > 45.2 µM
[6]; Homo sapiens, HepG2, 48 h
  IC50: > 45.2 µM
[7]; Homo sapiens, U-87 MG
  IC50: > 45.2 µM
[8]; [10]
  MFI of CD 11b (M0 marker): 32,925.30 ± 947.75
  MFI of CD80 (M1 marker): 4593.32 ± 951.60
  MFI of CD163 (M2 marker): 8203.00 ± 246.09**
[8]; without antigen
  MFI of CD 11b (M0 marker): 27,324.70 ± 2398.39
  MFI of CD80 (M1 marker): 4,380.00 ± 169.38
  MFI of CD163 (M2 marker): 6,755.64 ± 206.67**
[9]; Homo sapiens
  IC50: > 45.2 µM

## C[C@@H]1O[C@@H](O[C@H]2[C@H](O[C@H]3CC[C@@]4(C)[C@@H](CC[C@]5(C)[C@@H]4CC=C4[C@@H]6CC(C)(C)CC[C@]6(C(=O)O)CC[C@]45C)[C@]3(C)CO)O[C@H](CO)[C@H](O)[C@@H]2O)[C@H](O)[C@H](O)[C@H]1O [Compound 4a, 3-O-α-L-rhamopyranosyl-(1 → 2)-β-D-galactopyranosyl hederagenin]
[1]
  IC50: > 64 µM
[2]; 48 h
  IC50: 35.7 ± 4.9 µM
[3]; 48 h
  IC50: 8.13 ± 0.01 µM
[4]; 48 h
  IC50: 8.43 ± 0.15 µM
[5]
  IC50: 16.3 ± 4.75 µM
[6]; 48 h
  IC50: > 64 µM
[7]
  IC50: > 64 µM
[8]; [10]
  MFI of CD 11b (M0 marker): 30,124.70 ± 913.74
  MFI of CD80 (M1 marker): 4604.40 ± 128.49
[8]; without antigen
  MFI of CD 11b (M0 marker): 30,031.76 ± 1486.58
  MFI of CD80 (M1 marker): 4,552.00 ± 947.76
[9]
  IC50: > 64 µM
